# Patent US5157052A, “Method for inhibiting IgE production” (priority 1990, dated 1992)
# Entries after “also recorded” stand apart in the source; their conditions may differ.
# Legend:
# [1] = J. Pene et al., 1988; cited from earlier work
# IgE [2] = assay: Inhibition of de novo IgE synthesis after oral (intragastric) administration; format: in vivo, mouse (Balb/c female); details: for IgE ± SD: 20 μg intragastric TID days 3 and 4
# Protocol: (§1) ELISA (enzyme linked immunosorbant assay) measurements of IgE are as follows. About 5 μg of B1E3 antibody in 100 μl borate buffered saline (pH8.5) is added to wells of a NuncImmulon II 96 well plate (DiRuscio & Assoc., St. Louis, Mo.) at 37° C. for 90 minutes. The non-bound antibody is removed by flicking the plate. Unreacted sites on the plastic plate are blocked by adding about 200 μl of a 2% solution of newborn bovine serum (NBS) in PBS at 37° C. for 60 minutes. The standard IgE (or an unknown murine serum sample) is diluted to between about 4 ng/ml-256 ng/ml in Hanks-HS (20 mM Hepes, 2% NBS in Hanks Balanced Salt Solution, Gibco, Grand Island, N.Y.) or to 1/200 to 1/1000 in Hanks-HS respectively. 100 μl of standard (or unknown dilutions) are added in triplicate to the wells of the plate and allowed to absorb to B1E3 antibody at about 37° C. for 2-4 hours. The solution is removed by flicking the plate and each well is washed with about 0.5 ml 0.05% Tween 20-PBS 5 times. About 100 μl of biotinylated R1E4, called the primary antibody, diluted to 200 ng/ml is added to all wells and incubated at about 4° C. overnight. The solution is removed by flicking the plate and washed 5 times as described above. The developing reagent (Avidin and biotin-horse radish peroxidase) is incubated in 2% NBS in PBS at ambient temperature for 30 minutes, according to manufacturer's specifications (Vector Laboratories, Burlingame, Calif.). About 100 μl of developing reagent is added to each well and incubated at ambient temperature for 30 minutes. Colorimetric substrate for the developing reagent (ABTS peroxidase substrate system, KPL, Gaithersburg, Md.) is prepared by mixing equal volumes of solutions A and B and incubating at ambient temperature for 60 minutes. The developing reagent solution is removed by flicking the plate and washed 5 times as described above. About 100 μl of the mixture of substrates is added to each well and incubated at ambient temperature for 60 minutes. The optical density of each well is determined on a BioTek ELISA reader (Biotek Instruments, Inc., Burlington, Vermont) and the absorbance data transferred electronically to a DEC VAX mainframe computer. A standard curve is fitted to the IgE standard optical densities using straight line, linear regression statistical fits. IgE in the unknown serum samples is determined by comparing the optical density of the unknown to the standard curve and multiplying that number by the dilution of serum used in the assay.
# Three groups of 4 Balb/c female mice per group are injected with both 100 μg FF1-4D5 antibody and 100 μg H∂A1 antibody (Groups B, C, and D). Another group of 4 Balb/c female mice is injected with PBS alone, unstimulated control Group A. One of the stimulated group were not given any prostaglandin control Group B. On day 3 and 4, individual groups receive an intragastric feeding TID of 0.25 ml of 20 μg of (±) methyl 11α,16-dihydroxy-16-methyl-9-oxoprosta-5Z,13E-dien-1-oate (Group C) or 20 μg of prostaglandin E2 (Group D) dissolved in PBS.
# IgE [3] = assay: In vitro IgE inhibition; format: cell-based
# IgE [4] = assay: ED50 for inhibition of IgE calculated from the examples; format: in vivo, mouse
# Protocol: From the data in the above examples, the effective dose of each prostaglandin to achieve 50% inhibition of IgE (ED50) was calculated.
# IgE [5] = assay: Serum IgE response induced by FF1-4D5 + H∂A1 anti-IgD antibodies (ELISA, Assay A / Assay F); format: in vivo, mouse (Balb/c female); details: for IgE ± SD: Table 9, 20 μg IP days 3 and 4
# Protocol: Mouse hybridoma cells expressing either FF1-4D5 antibody or H∂A1 antibody are thawed, established in culture, and incubated in mice as ascite tumors. FF1-4D5 antibody is a mouse IgG2a monoclonal antibody of the b allotype that binds the Fd fragment of the ∂ chain of the a allotype IgD which activates β cells through antigen internalization and processing, promoting cognate interactions with antigen-specific T cells (D. K. Goroff et al., J. Immunol. 136: 2382 (1986)). H∂A1 antibody is a mouse IgG2b of the b allotype that binds the Fc fragment of the ∂ chain of the a allotype IgD which activates β cells through crosslinking IgD (I. M. Zitron and B. L. Clevinger, J. Exp. Med. 152: 1135 (1980)). Each antibody is purified from their respective ascites tumor fluid. […] Serum from the injected mice is recovered and the mean concentration of IgE determined.
# Serum levels of IgE are determined and IgE levels are shown to be inhibited in a dose dependent manner.
# as §1
# Stimulation of a transient serum IgE response in mouse with two monoclonal antibodies directed against IgD is carried out as follows.
# Mouse hybridoma cells expressing either FF1-4D5 antibody or H∂Al antibody are thawed, established in culture, and incubated in CB6 F1 female mice as an ascites tumor and each immunoglobulin is purified from the ascites fluid as described above. […]
# [6] = day -1 baseline before treatment
smiles,measurement,setting,value
CCCCC[C@H](O)/C=C/[C@H]1[C@H](O)CC(=O)[C@@H]1C/C=C\CCCC(=O)O [prostaglandin E2],immunosuppressive effects in vitro,[1],Immunosuppressive effects of prostaglandins in vitro has been demonstrated
same,inhibition of de novo IgE synthesis after oral administration,IgE [2]; 20 μg intragastric TID,"ineffective; also recorded: inhibits IgE synthesis slightly, if at all"
same,IgE ± SD,"IgE [2]; day 8 (stimulated control 5792, unstimulated 1015)",3724 ± 1361 ng/mL
same,IgE ± SD,IgE [2]; day 10 (stimulated control 1498),1496 ± 219 ng/mL
same,IgE ± SD,IgE [2]; [6],1094 ± 107 ng/mL
same,inhibition of IgE in vitro,IgE [3],exhibit inhibition of IgE in vitro
same,ED50 IgE Inhibition,IgE [4]; dose to achieve 50% inhibition of IgE,> 45.0 μg/mouse/TID
same,dosage to achieve 50% inhibition of IgE,IgE [4]; text of Example 28,greater than 45 μg/mouse
same,inhibition of de novo IgE synthesis in vivo,IgE [5]; 20 μg days 3 and 4,lack of inhibition
same,IgE ± SD,IgE [5]; day 8 (control 3539),3340 ± 384 ng/mL
same,IgE ± SD,IgE [5]; [6],897 ± 194 ng/mL
same,inhibition of IgE in vivo,"IgE [5]; in vivo, summary statement",only low inhibition in vivo
